Values quoted from earlier work in patent US20210137911A1, “NOVEL CHRONOTHERAPY BASED ON CIRCADIAN RHYTHMS” (THE TRUSTEES OF THE UNIVERSITY OF PENNSYLVANIA, priority 2014, published 2021).
Read-outs that look alike come from different tables or passages of the source.

Conditions: cited from earlier work
[1] = half-life of therapeutic compound as listed in Table 1
[2] = half-life of top selling therapeutic compounds (Table 1)

Compound | ½ Life (in vivo) [h] | ½ Life [2] [h] | other results
COc1ccc2[nH]c([S+]([O-])Cc3ncc(C)c(OC)c3C)nc2c1 (stereo not shown) [Omeprazole] |  |  | ½ Life [1]: 0.5 h
C[N+]1(C)CCC(OC(=O)C(O)(c2ccccc2)C2CCCC2)C1 (stereo not shown) [Glycopyrrolate] |  |  | ½ Life [1]: 0.6 h
C[C@H]1C[C@@H]2[C@H]([C@@H](O)C[C@@]3(C)[C@H]2CC[C@]3(O)C(=O)CO)[C@@]2(C)C=CC(=O)C=C12 [Methylprednisolone] |  |  | ½ Life [1]: 1 h
Cn1c(=O)c2c(ncn2C)n(C)c1=O [Caffeine] | 3 |  | 
COCCOC(=O)C1=C(C)NC(C)=C(C(=O)OC(C)C)C1c1cccc([N+](=O)[O-])c1 (stereo not shown) [Nimodipine] |  |  | ½ Life [1]: 1.7 h
CC(=O)N[C@H]1[C@H]([C@H](O)[C@H](O)CO)OC(C(=O)O)=C[C@@H]1N=C(N)N [Zanamivir] | 2.5 |  | 
N[C@H](C(=O)O)[C@H](O)c1ccc(O)c(O)c1 [Droxidopa] |  | 2 | 
Mecasermin | 2 |  | 
CC(=O)Nc1nnc(S(N)(=O)=O)s1 [Acetazolamide] |  | 3 | 
Tositumomab | 0.8 |  | 
CC(C)(C)NC[C@H](O)COc1nsnc1N1CCOCC1 [Timolol] | 2.5 |  | 
CS(=O)(=O)Nc1ccc([N+](=O)[O-])cc1Oc1ccccc1 [Nimesulide] | 1.8 |  | 
CCc1ccc(CCOc2ccc(CC3SC(=O)NC3=O)cc2)nc1 (stereo not shown) [Pioglitazone] |  |  | ½ Life [1]: 3 h
CNC1(c2ccccc2Cl)CCCCC1=O (stereo not shown) [Ketamine] | 2.5 |  | 
CCCCc1ncc(/C=C(\Cc2cccs2)C(=O)O)n1Cc1ccc(C(=O)O)cc1 [Eprosartan] |  | 5 | 
CSc1ccc(C(=O)c2[nH]c(=O)[nH]c2C)cc1 [Enoximone] |  | 4 | 

Compound | ½ Life (in vivo) [h] | ½ Life [2] [h] | other results
CNCC[C@@H](Oc1ccccc1C)c1ccccc1 [Atomoxetine] |  | 5 | 
C=CCOc1ccccc1OCC(O)CNC(C)C (stereo not shown) [Oxprenolol] |  |  | ½ Life [1]: 1 h
Oc1ccc(CCCCNC[C@H](O)c2ccc(O)c(O)c2)cc1 [Arbutamine] | 0.133 |  | 
Tinzaparin | 1.366 |  | 
Clc1ccccc1C(c1ccccc1)(c1ccccc1)n1ccnc1 [Clotrimazole] |  | 2 | 
COc1ccc2[nH]cc(CCNC(C)=O)c2c1 [Melatonin] |  |  | ½ Life [1]: 0.5833 h
Nc1nc2[nH]cc(CCc3ccc(C(=O)N[C@@H](CCC(=O)O)C(=O)O)cc3)c2c(=O)[nH]1 [Pemetrexed] |  |  | ½ Life [1]: 3.5 h
CN(C)C(=O)Oc1ccc[n+](C)c1 [Pyridostigmine] | 3 |  | 
COc1cc([C@@H]2c3cc4c(cc3[C@@H](O[C@@H]3O[C@@H]5CO[C@@H](C)O[C@H]5[C@H](O)[C@H]3O)[C@H]3COC(=O)[C@H]23)OCO4)cc(OC)c1O [Etoposide] |  | 4 | 
Leptin | 0.415 |  | 
CO[C@H]1C(=O)[C@]2(C)[C@@H](OC)C[C@H]3OC[C@@]3(OC(C)=O)[C@H]2[C@H](OC(=O)c2ccccc2)[C@]2(O)C[C@H](OC(=O)[C@H](O)[C@@H](NC(=O)OC(C)(C)C)c3ccccc3)C(C)=C1C2(C)C [Cabazitaxel] |  | 4 | 
COc1ccc2c3c1O[C@H]1C(=O)CC[C@@]4(O)[C@@H](C2)N(C)CC[C@]314 [Oxycodone] |  |  | ½ Life [1]: 4.5 h
O=C(O[C@H]1C[N+]2(CCCOc3ccccc3)CCC1CC2)C(O)(c1cccs1)c1cccs1 [Aclidinium] |  | 2.4 | 
Cc1nc(Nc2ncc(C(=O)Nc3c(C)cccc3Cl)s2)cc(N2CCN(CCO)CC2)n1 [Dasatinib] |  | 3 | 
C[C@@H](CO)NC(=O)[C@@H]1C=C2c3cccc4[nH]cc(c34)C[C@H]2N(C)C1 [Ergonovine] |  | 1 | 
